{
  "source": "patent US20120122825A1",
  "about": "“USE OF PICOPLATIN TO TREAT PROSTATE CANCER” (Poniard Pharmaceuticals, Inc., priority 2009, published 2012)",
  "origin": "cited, not measured here",
  "key": {"[1]": {"system": "patients with solid tumors", "details": "picoplatin and docetaxel combination, 33 patients with solid tumors"}, "[2]": {"details": "30 mg/m^2 docetaxel weekly for 5 of 6 weeks plus 5 mg prednisone twice daily"}},
  "data": [
    {"smiles": "CC(=O)O[C@@]12CO[C@@H]1C[C@H](O)[C@@]1(C)C(=O)[C@H](O)C3=C(C)[C@@H](OC(=O)[C@H](O)[C@@H](NC(=O)OC(C)(C)C)c4ccccc4)C[C@@](O)([C@@H](OC(=O)c4ccccc4)[C@H]21)C3(C)C", "note": "[docetaxel]", "values": [
      {"measurement": "dose limiting toxicity (DLT) dose", "setting": "[1]", "value": 75, "unit": "mg/m^2"},
      {"measurement": "recommended Phase II dose (PTD)", "setting": "[1]", "value": 75, "unit": "mg/m^2"},
      {"measurement": ">50% reductions in PSA, share of men", "setting": "men with HRPC; [2]", "value": 48, "unit": "%"},
      {"measurement": "Overall survival", "setting": "men with HRPC; [2]", "value": 17.4, "unit": "months"},
      {"measurement": "PSA response expected", "setting": "men with HRPC; docetaxel alone, comparison value", "value": 45, "unit": "%"}
    ]}
  ]
}
